In patent publication EP4806898A1, “HETEROARYL DERIVATIVE COMPOUND AND USE THEREOF” (Voronoi Inc., priority 2023, dated 2025):

Biological target: T1, recombinant USP1 protein (Homo sapiens, UniProt O94782, DEL125-138/DEL229-408/DEL608-737)
T1 sequence (O94782 with tags, fused parts or gaps DEL125-138/DEL229-408/DEL608-737): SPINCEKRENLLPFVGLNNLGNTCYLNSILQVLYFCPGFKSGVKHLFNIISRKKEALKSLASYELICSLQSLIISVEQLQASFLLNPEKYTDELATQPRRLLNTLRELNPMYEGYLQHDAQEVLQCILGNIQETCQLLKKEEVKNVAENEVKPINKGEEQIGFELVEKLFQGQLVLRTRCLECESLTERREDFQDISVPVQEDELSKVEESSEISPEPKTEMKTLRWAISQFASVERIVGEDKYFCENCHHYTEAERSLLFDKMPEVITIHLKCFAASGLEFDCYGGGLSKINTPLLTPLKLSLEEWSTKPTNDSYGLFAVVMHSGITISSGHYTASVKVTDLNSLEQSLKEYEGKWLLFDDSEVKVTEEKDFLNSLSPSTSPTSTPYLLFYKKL
Experiment: Binding affinity to recombinant USP1 protein by differential scanning fluorimetry
Conditions: compound 100 µM; 0.03 mg/mL USP1 (Δ1-66, Δ125-138, Δ229-408, Δ608-737); Tm with compound minus Tm with DMSO; read-out: ΔTm (°C)
Description: <Experimental Example 1> Confirmation and evaluation of the binding affinity to recombinant USP1 protein
To evaluate the binding affinity of the compounds of the present invention to the USP1 protein, the following experiment was performed using differential scanning fluorimetry.
Recombinant 0.03 mg/mL USP1 (Δ1-66, Δ125-138, Δ229-408, Δ608-737) protein, dye reagent, and buffer solution (50 mM Tris-HCl pH 8.0, 150 mM NaCl, 2% glycerol, 1 mM DTT) were mixed and 19 µL of the mixture was dispensed into a well plate (MicroAmp Fast 96-Well Reaction plate, 0.1 mL). Each compound was injected at a final concentration of 100 µM in an amount of 1 µL, and the plate containing a total of 20 µL was sealed with MicroAmp Optical Adhesive Film. The melting temperature (Tm) of the protein in each well was measured using a real-time PCR (RT-PCR) device. The difference between the Tm of the sample containing the compound and the Tm containing DMSO is referred to as delta Tm (ΔTm), where a larger ΔTm value indicates stronger binding affinity. The degree of temperature at which the protein is modified in the presence of the compound compared to DMSO was calculated according to Equation 1 below: [formula]

| SMILES | ΔTm at 100 µM [°C] |
| --- | --- |
| COc1ncnc(C2CC2)c1-c1ncc2cc(C(=O)N3CC4CCC(C3)N4)n(Cc3ccc(-c4nc(C(F)(F)F)cn4C(C)C)cc3)c2n1 [Example 16, (3,8-diazabicyclo[3 .2.1]octan-3-yl)(2-(4-cyclopropyl-6-methoxypyrimidin-5-yl)-7-(4-(1-isopropyl-4-(trifluoromethyl)-1H-imidazol-2-yl)benzyl)-7H-pyrrolo[2,3-d]pyrimidin-6-yl)methanone] | > 5 |
| CNC(=O)c1cc2cnc(-c3c(OC)ncnc3C3CC3)nc2n1CC12CCC(c3nc(C(F)(F)F)cn3C(C)C)(CC1)CO2 [Example 226, 2-(4-cyclopropyl-6-methoxypyrimidin-5-yl)-7-(((1s,4s)-4-(1-isopropyl-4-(trifluoromethyl)-1H-imidazol-2-yl)-2-oxabicyclo[2.2 .2]octan-1-yl)methyl)-N-methyl-7H-pyrrolo[2,3-d]pyrimidine-6-carboxamide] | < 5 |
| CNC(=O)c1cc2cnc(-c3c(C4CC4)nc[nH]c3=O)nc2n1Cc1ccc(-c2nc(C(F)(F)F)cn2C(C)C)cc1 [Example 59, 2-(4-cyclopropyl-6-oxo-1,6-dihydropyrimidin-5-yl)-7-(4-(1-isopropyl-4-(trifluoromethyl)-1H-imidazol-2-yl)benzyl)-N-methyl-7H-pyrrolo[2,3-d]pyrimidine-6-carboxamide] | < 5 |
| COc1ncnc(C2CC2)c1-c1ncc2cc(C(=O)N3CCCC3)n(Cc3ccc(-c4nc(C(F)(F)F)cn4C)cc3)c2n1 [Example 192, (2-(4-cyclopropyl-6-methoxypyrimid in-5-yl)-7-(4-(1-methyl-4-(trifluoromethyl)-1H-imidazol-2-yl)benzyl)-7H-pyrrolo[2,3-d]pyrimidin-6-yl) (pyrrolidin-1-yl)methanone] | > 5 |
| COCCN1CC[C@@H](NC(=O)c2cc3cnc(-c4c(OC)ncnc4C4CC4)nc3n2Cc2ccc(-c3nc(C(F)(F)F)cn3C)cc2)[C@@H](F)C1 [Example 160, 2-(4-cyclopropyl-6-methoxypyrimidin-5-yl)-N-((3S,4R)-3-fluoro-1-(2-methoxyethyl)piperidin-4-yl)-7-(4-(1-methyl-4-(trifluoromethyl)-1H-imidazol-2-yl)benzyl)-7H-pyrrolo[2,3-d]pyrimidine-6-carboxamide] | > 5 |
| CCn1cnc(C2CC2)c(-c2ncc3cc(C(=O)NC)n(Cc4ccc(-c5nc(C(F)(F)F)cn5C(C)C)cc4)c3n2)c1=O [Example 62, 2-(4-cyclopropyl-1-ethyl-6-oxo-1,6-dihydropyrimidin-5-yl)-7-(4-(1-isopropyl-4-(trifluoromethyl)-1H-imidazol-2-yl)benzyl)-N-methyl-7H-pyrrolo[2,3-d]pyrimidine-6-carboxamide] | < 5 |
| COc1ncnc(C2CC2)c1-c1ncc2cc(C(=O)N3C[C@H]4CC[C@@H](C3)N4C3CC3)n(Cc3ccc(-c4nc(C(F)(F)F)cn4C(C)C)cc3)c2n1 [Example 46, (2-(4-cyclopropyl-6-methoxypyrimid in-5-yl)-7-(4-(1-isopropyl-4-(trifluoromethyl)-1H-imidazol-2-yl)benzyl)-7H-pyrrolo[2,3-d]pyrimidin-6-yl)((1R,5S)-8-cyclopropyl-3,8-diazabicyclo[3 .2.1]octan-3-yl)methanone] | > 5 |
| CNC(=O)c1cc2cnc(-c3c(OC)ncnc3C3CC3)nc2n1Cc1ccc(-n2ccnn2)cc1 [Example 44, 7-(4-(1H-1,2,3-triazol-1-yl)benzyl)-2-(4-cyclopropyl-6-methoxypyrimidin-5-yl)-N-methyl-7H-pyrrolo[2,3-d]pyrimidine-6-carboxamide] | < 5 |
| CNC(=O)c1cc2cnc(-c3c(OC)ncnc3C3CC3)nc2n1Cc1ccc(-n2nc(C(F)(F)F)cc2C(=O)O)cc1 [Example 213, 1-(4-((2-(4-cyclopropyl-6-methoxypyrimidin-5-yl)-6-(methylcarbamoyl)-7H-pyrrolo[2,3-d]pyrimidin-7-yl)methyl)phenyl)-3-(trifluoromethyl)-1H-pyrazol-5-carboxylic acid] | < 5 |

The remaining lines, values ahead:

| ΔTm at 100 µM [°C] | SMILES |
| --- | --- |
| > 5 | COc1ncnc(C2CC2)c1-c1ncc2cc(C(=O)N[C@@H](C)CCO)n(Cc3ccc(-c4nc(C(F)(F)F)cn4C(C)C)cc3)c2n1 [Example 91, (S)-2-(4-cyclopropyl-6-methoxypyrimidin-5-yl)-N-(4-hydroxybutan-2-yl)-7-(4-(1-isopropyl-4-(trifluoromethyl)-1H-imidazol-2-yl)benzyl)-7H-pyrrolo[2,3-d]pyrimidine-6-carboxamide] |
| > 5 | COc1ncnc(C2CC2)c1-c1ncc2cc(C(=O)NO)n(Cc3ccc(-c4nc(C(F)(F)F)cn4C(C)C)cc3)c2n1 [Example 120, 2-(4-cyclopropyl-6-methoxypyrimidin-5-yl)-N-hydroxy-7-(4-(1-isopropyl-4-(trifluoromethyl)-1H-imidazol-2-yl)benzyl)-7H-pyrrolo[2,3-d]pyrimidine-6-carboxamide] |
| > 5 | COc1ncnc(C2CC2)c1-c1ncc2cc(C(=O)NC3CCS(=O)(=O)CC3)n(Cc3ccc(-c4nc(C(F)(F)F)cn4C(C)C)cc3)c2n1 [Example 93, 2-(4-cyclopropyl-6-methoxypyrimidin-5-yl)-N-(1,1-dioxidotetrahydro-2H-thiopyran-4-yl)-7-(4-(1-isopropyl-4-(trifluoromethyl)-1H-imidazol-2-yl)benzyl)-7H-pyrrolo[2,3-d]pyrimidine-6-carboxamide] |
| > 5 | COc1ncnc(C2CC2)c1-c1ncc2cc(C(=O)N(C)C3CC3)n(Cc3ccc(-c4nc(C(F)(F)F)cn4C(C)C)cc3)c2n1 [Example 76, N-cyclopropyl-2-(4-cyclopropyl-6-methoxypyrimidin-5-yl)-7-(4-(1-isopropyl-4-(trifluoromethyl)-1H-imidazol-2-yl)benzyl)-N-methyl-7H-pyrrolo[2,3-d]pyrimidine-6-carboxamide] |
| > 5 | COc1ncnc(C2CC2)c1-c1ncc2cc(C(=O)N(C)C3CNC3)n(Cc3ccc(-c4nc(C(F)(F)F)cn4C(C)C)cc3)c2n1 [Example 103, N-(azetidin-3-yl)-2-(4-cyclopropyl-6-methoxypyrimidin-5-yl)-7-(4-(1-isopropyl-4-(trifluoromethyl) -1H-imidazol-2-yl)benzyl)-N-methyl-7H-pyrrolo[2,3-d]pyrimidine-6-carboxamide] |
| > 5 | COc1ncnc(C2CC2)c1-c1ncc2cc(C(=O)N3CC(F)(C#N)C3)n(Cc3ccc(-c4nc(C(F)(F)F)cn4C(C)C)cc3)c2n1 [Example 72, 1-(2-(4-cyclopropyl-6-methoxypyrimidin-5-yl)-7-(4-(1-isopropyl-4-(trifluoromethyl)-1H-imidazol-2-yl)benzyl)-7H-pyrrolo[2,3-d]pyrimidine-6-carbonyl)-3-fluoroazetidine-3-carbonitrile] |
| > 5 | COc1ncnc(C2CC2)c1-c1ncc2cc(C(=O)N3CCS(=O)(=O)CC3)n(Cc3ccc(-c4nc(C(F)(F)F)cn4C(C)C)cc3)c2n1 [Example 27, (2-(4-cyclopropyl-6-methoxypyrimid in-5-yl)-7-(4-(1-isopropyl-4-(trifluoromethyl)-1H-imidazol-2-yl)benzyl)-7H-pyrrolo[2,3-d]pyrimidin-6-yl) (1,1-dioxidothiomor pholino)methanone] |
| > 5 | COc1ncnc(C2CC2)c1-c1ncc2cc(C(=O)Nc3ccc(CN(C)C)cc3)n(Cc3ccc(-c4nc(C(F)(F)F)cn4C(C)C)cc3)c2n1 [Example 77, 2-(4-cyclopropyl-6-methoxypyrimidin-5-yl)-N-(4-((dimethylamino)methyl)phenyl)-7-(4-(1-isopropyl-4-(trifluoromethyl)-1H-imidazol-2-yl)benzyl)-7H-pyrrolo[2,3-d]pyrimidine-6-carboxamide] |
| > 5 | COc1ncnc(C2CC2)c1-c1ncc2cc(C(=O)NCCN3CCNCC3)n(Cc3ccc(-c4nc(C(F)(F)F)cn4C(C)C)cc3)c2n1 [Example 98, 2-(4-cyclopropyl-6-methoxypyrimidin-5-yl)-7-(4-(1-isopropyl-4-(trifluoromethyl)-1H-imidazol-2-yl)benzyl) -N-(2-(piperazin-1-yl)ethyl)-7H-pyrrolo[2,3-d]pyrimidine-6-carboxamide] |
| > 5 | COc1ncnc(C2CC2)c1-c1ncc2cc(C(=O)NCCS(C)(=O)=O)n(Cc3ccc(-c4nc(C(F)(F)F)cn4C(C)C)cc3)c2n1 [Example 8, 2-(4-cyclopropyl-6-methoxypyrimidin-5-yl)-7-(4-(1-isopropyl-4-(trifluoromethyl)-1H-imidazol-2-yl)benzyl)-N-(2-(methylsulfonyl)ethyl)-7H-pyrrolo[2,3-d]pyrimidine-6-carboxamide] |
